Test system: human iPS cells
Experiment: survival rate on ROCK inhibitor (+) versus (-) cultivation after thawing
Type: cell-based
Settings: 10 μM Y-27632 for two days then three days without; rapid thawing with warm culture medium; ROCK inhibitor (-) cultivation about 30%
Experimental: Cultivation and freezing in the stem cell preservation method were carried out by procedures similar to those of Embodiment 2. Regarding thawing, after a warm culture medium was used to conduct rapid thawing, difference of survival rate was measured depending on whether the ROCK inhibitor 10 μM Y-27632 was added or not. Where the inhibitor was added, in the presence of Y-27632, cultivation was performed for two days, thereafter, cultivation was performed additionally for three days in a culture medium free of Y-27632. On the other hand, where no inhibitor was added, cultivation was performed for five days in a normal culture medium. On both the cultivation, a survival rate was measured according to the method described in Embodiment 2.

C[C@@H](N)[C@H]1CC[C@H](C(=O)Nc2ccncc2)CC1 [ROCK inhibitor, Y-27632]
survival rate: about 120%

— patent publication US20160021873A1, “STEM CELL PRESERVATION MEDIUM, STEM CELL PRESERVATION METHOD, AND STEM CELL PRESERVATION SYSTEM” (KYOKUTO PHARMACEUTICAL INDUSTRIAL CO., LTD., priority 2012, published 2016)
